One may read the EC50 as the concentration that produces a half-maximal response.

The record followed here is patent US9822069B2, “Urea derivative or pharmacologically acceptable salt thereof” (KYORIN PHARMACEUTICAL CO. LTD., priority 2013, dated 2017).

Test [1] has as its target T1, human FPRL1 (Homo sapiens, UniProt P25090).
T1 construct: expressed in transfected cells; host or cells: HEK293 (JCRB9068, NIBIO), transient transfection with pCMV-script vectors using Lipofectamine 2000
T1 sequence (P25090 1-351): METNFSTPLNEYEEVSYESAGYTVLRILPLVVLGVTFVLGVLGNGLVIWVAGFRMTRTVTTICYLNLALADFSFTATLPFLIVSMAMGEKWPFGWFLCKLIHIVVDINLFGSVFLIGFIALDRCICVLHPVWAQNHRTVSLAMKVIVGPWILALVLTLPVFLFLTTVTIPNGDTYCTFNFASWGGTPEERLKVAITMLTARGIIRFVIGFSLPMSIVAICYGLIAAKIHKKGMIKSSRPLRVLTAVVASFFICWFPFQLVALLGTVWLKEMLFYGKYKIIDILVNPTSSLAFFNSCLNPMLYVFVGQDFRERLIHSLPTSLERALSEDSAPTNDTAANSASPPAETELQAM
Briefly: Measurement test of agonist activity on human FPRL1 (test of calcium mobilization in cell, HEK293 with human FPRL1 and Gα15 expression vectors). Type of test: cell-based. As to conditions: calcium mobilization in HEK293 cells with human FPRL1 and Gα15 expression vectors. The procedure, abridged:
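HEK293 transiently co-transfected with human FPRL1 and Gα15, plated 24 h before assay, loaded with Fluo-4 NW dye plus probenecid. Compounds in eight 10-fold dilutions (DMSO stocks 10^−2 to 10^−9 M, then diluted 100-fold in assay buffer); calcium mobilization read on Flexstation for EC50.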

For test [2], the system named is mouse (BALB/c, male). In words: Effect of lipopolysaccharide induction on neutrophilic infiltration in mouse lung. Type of test: in vivo. As to conditions: neutrophil infiltration in BAL fluid, LPS-exposed BALB/c mouse, oral; for inhibition in vivo at 1 mg/kg / inhibition in vivo at 3 mg/kg: 5 h, read-out: SUPPRESSION RATIO. How it is done: Effect of Lipopolysaccharide Induction on Neutrophilic Infiltration in Mouse Lung A compound to be tested was orally administrated to a mouse (BALB/c, male), and after 30 minutes, the mouse was placed in a plastic container. Lipopolysaccharide (0.3 mg/mL) dissolved in physiological saline was aerosolized with an ultrasonic wave nebulizer (NE-U17, OMRON Corporation), and exposed to the mouse for 10 minutes. After 5 hours, the anesthetized mouse was sacrificed by exsanguination. A cannula was inserted in the respiratory tract and bronchoalveolar lavage (BAL) with 1 mL of 0.85% NaCl liquid containing 0.4% sodium citrate was carried out. This operation was repeated 3 times, to obtain a BAL fluid. The BAL fluid was centrifuged at 4° C. and ×200 g for 5 minutes, and the pellet was suspended in a physiological saline containing 0.1% BSA. The number of white blood cells was counted using Turks solution with a microscope, and the total white blood cell count was calculated. The white blood cells were fixed on a glass slide using Cytospin 3 (Thermo BioAnalysis Japan K. K.). The cells were stained with Diff-Quik (SYSMEX INTERNATIONAL REAGENTS CO., LTD.), and the number thereof was counted with a microscope, and the neutrophil ratio was calculated. The neutrophil ratio was multiplied by the total white blood cell count to calculate the total neutrophil count. An effect of the compound to be tested represents a percentage (%) of suppression ratio relative to the neutrophil count in a control.

SMILES strings stand for the structures.

Regarding `COc1cc(F)c([C@@H]2CNC(=O)[C@H]2NC(=O)Nc2ccc(F)cc2)c(F)c1` (single isomer, unassigned) [EXAMPLE 1-12, (−)-1-[(3S*,4R*)-4-(2,6-difluoro-4-methoxyphenyl)-2-oxopyrrolidin-3-yl]-3-(4-fluorophenyl)urea], in test [1], the EC50 amounted to 60 pM. Moreover, the inhibition in vivo at 1 mg/kg in test [2] (dose 1 mg/kg) is 96.8%.

On to `COc1ccc([C@@H]2CNC(=O)C2NC(=O)Nc2ccc(Cl)cc2)cc1` (mixture of isomers) [Example 1-53, (±)-trans-1-(4-chlorophenyl)-3-[4-(4-methoxyphenyl)-2-oxopyrrolidin-3-yl]urea], for which the EC50 in test [1] amounted to 180 pM. In addition, in test [2] (dose 1 mg/kg), the inhibition in vivo at 1 mg/kg was determined as 78.9%. On to `COc1cc(F)c([C@@H]2CN/C(=N\OCCO)[C@H]2NC(=O)Nc2ccc(C)cc2)c(F)c1` (single isomer, unassigned) [EXAMPLE 32-12, (−)-1-{(3S*,4R*,Z)-4-(2,6-difluoro-4-methoxyphenyl)-2-[(2-hydroxyethoxy)imino]pyrrolidin-3-yl}-3-(p-tolyl)urea], for which the EC50 in test [1] stood at 270 pM. Besides, the “SUPPRESSION RATIO (%)” value in test [2] (dose 1 mg/kg) came to 96.8%. For `CO/N=C1\NC[C@@H](c2ccc(OC)cc2)[C@@H]1NC(=O)Nc1ccc(F)cc1` (single isomer, unassigned) [EXAMPLE 32-1, (−)-1-(4-Fluorophenyl)-3-[(3S*,4R*,Z)-2-(methoxyimino)-4-(4-methoxyphenyl)pyrrolidin-3-yl]urea], in test [1], the EC50 is 130 pM. For the same compound, in test [2] (dose 3 mg/kg), the inhibition in vivo at 3 mg/kg was 99%.

Turning to `COc1cc(F)c([C@@H]2CNC(=O)[C@H]2NC(=O)Nc2ccc(Cl)cc2)c(F)c1` (single isomer, unassigned) [EXAMPLE 1-22, (−)-1-(4-chlorophenyl)-3-[(3S*,4R*)-4-(2,6-difluoro-4-methoxyphenyl)-2-oxopyrrolidin-3-yl]urea], the EC50 in test [1] was found to be 110 pM. In test [2] (dose 1 mg/kg), the inhibition in vivo at 1 mg/kg is 93.1%. Take `COc1cc(F)c([C@@H]2CNC(=O)[C@H]2NC(=O)Nc2ccc(C)cc2)c(F)c1` (relative stereo) [Example 9-1, (−)-1-[(3S*,4R*)-4-(2,6-Difluoro-4-methoxyphenyl)-2-oxopyrrolidin-3-yl]-3-(p-tolyl)urea]: the EC50 in test [1] was found to be 860 pM. Moreover, the “SUPPRESSION RATIO (%)” value in test [2] (dose 3 mg/kg) came to 57.0%. In the case of `CCN1C[C@@H](c2ccc(OC)cc2)[C@H](NC(=O)Nc2ccc(F)cc2)C1=O` (relative stereo) [Example 12-1, (−)-1-[(3S*,4R*)-1-Ethyl-4-(4-methoxyphenyl)-2-oxopyrrolidin-3-yl]-3-(4-fluorophenyl) urea], the EC50 in test [1] stood at 130 pM. For the same compound, the inhibition in vivo at 3 mg/kg in test [2] (dose 3 mg/kg) amounted to 97.4%. For `COc1cc(F)c([C@@H]2CN(CCO)C(=O)[C@H]2NC(=O)Nc2ccc(C)cc2)c(F)c1` (relative stereo) [Example 24-7, (−)-1-[(3S*,4R*)-4-(2,6-difluoro-4-methoxyphenyl)-1-(2-hydroxyethyl)-2-oxopyrrolidin-3-yl]-3-(p-tolyl)urea], the EC50 in test [1] amounted to 690 pM. Still for that read-out and setting: for `COc1cc(F)c([C@@H]2CNC(=O)[C@H]2NC(=O)Nc2cccc(O)c2)c(F)c1` (relative stereo) [Example 1-57, 1-[(3S*,4R*)-4-(2,6-difluoro-4-methoxyphenyl)-2-oxopyrrolidine-3-yl]-3-(3-hydroxyphenyl)urea] the value was 160 pM; for `COc1cc(F)c([C@@H]2CN/C(=N\OCCO)[C@H]2NC(=O)Nc2ccc(C#N)cc2)c(F)c1` (single isomer, unassigned) [EXAMPLE 32-13, (−)-1-(4-cyanophenyl)-3-{(3S*,4R*,Z)-4-(2,6-difluoro-4-methoxyphenyl)-2-[(2-hydroxyethoxy)imino]pyrrolidin-3-yl}urea], 250 pM. Still for that read-out and setting: to `COc1ccc([C@@H]2CNC(=O)[C@H]2NC(=O)Nc2ccc(F)cc2)s1` (single isomer, unassigned) [EXAMPLE 1-19, (−)-1-(4-fluorophenyl)-3-[(3S*,4R*)-4-(5-methoxythiophen-2-yl)-2-oxopyrrolidin-3-yl]urea] belongs 720 pM; to `COc1ccc([C@@H]2CN(CCO)C(=O)[C@H]2NC(=O)Nc2ccc(Cl)cc2)cc1` (single isomer, unassigned) [Example 15-1A, (−)-trans-1-(4-Chlorophenyl)-3-[1-(2-hydroxyethyl)-4-(4-methoxyphenyl)-2-oxopyrrolidin-3-yl]urea], 10 pM; to `COc1cc(F)c([C@@H]2CN(C)C(=O)[C@H]2NC(=O)Nc2ccc(C#N)cc2)c(F)c1` (relative stereo) [Example 24-3], 1100 pM. Same read-out and setting: to `COc1ccc([C@@H]2CN(C)C(=O)[C@H]2NC(=O)Nc2ccc(Cl)cc2)cc1` (single isomer, unassigned) [EXAMPLE 1-6, (−)-1-(4-chlorophenyl)-3-[(3S*,4R*)-4-(4-methoxyphenyl)-1-methyl-2-oxopyrrolidin-3-yl]urea] belongs 200 pM; to `COc1cc(F)c([C@@H]2CN/C(=N\N3CCOCC3)[C@H]2NC(=O)Nc2ccc(F)cc2)c(F)c1` (single isomer, unassigned) [EXAMPLE 32-17, (−)-1-[(3S*,4R*,Z)-4-(2,6-difluoro-4-methoxyphenyl)-2-(morpholinoimino)pyrrolidin-3-yl]-3-(4-fluorophenyl)urea], 570 pM; to `CCCN1C[C@@H](c2c(F)cc(OC)cc2F)[C@H](NC(=O)Nc2ccc(F)cc2)C1=O` (relative stereo) [Example 24-11, (−)-1-[(3S*,4R*)-4-(2,6-difluoro-4-methoxyphenyl)-2-oxo-1-propylpyrrolidin-3-yl]-3-(4-fluorophenyl)urea], 60 pM.

Regarding `C#Cc1ccc(NC(=O)N[C@@H]2C(=O)NC[C@H]2c2c(F)cc(OC)cc2F)cc1` (single isomer, unassigned) [EXAMPLE 28-4, (−)-1-[(3S*,4R*)-4-(2,6-Difluoro-4-methoxyphenyl)-2-oxopyrrolidin-3-yl]-3-(4-ethynylphenyl) urea], the EC50 in test [1] was 1640 pM. Same read-out and setting: to `COc1cc(F)c([C@@H]2CN(CCO)C(=O)[C@H]2NC(=O)Nc2ccccc2)c(F)c1` (relative stereo) [Example 24-6, (−)-1-[(3S*,4R*)-4-(2,6-difluoro-4-methoxyphenyl)-1-(2-hydroxyethyl)-2-oxopyrrolidin-3-yl]-3-phenylurea] belongs 400 pM. Same read-out and setting: to `N#CCN1C[C@@H](c2cc3c(cc2F)OCC3)[C@H](NC(=O)Nc2ccc(F)cc2)C1=O` (single isomer, unassigned) [EXAMPLE 24-23, (−)-1-[(3S*,4R*)-1-(cyanomethyl)-4-(6-fluoro-2,3-dihydrobenzofuran-5-yl)-2-oxopyrrolidin-3-yl]-3-(4-fluorophenyl)urea] belongs 800 pM.

Consider `CNC(=O)C(C)N1C[C@@H](c2ccc(OC)cc2)[C@H](NC(=O)Nc2ccc(F)cc2)C1=O` (single isomer, unassigned; isomer b) [Example 21-1, (−)-2-{(3S*,4R*)-3-[3-(4-Fluorophenyl)ureido]-4-(4-methoxyphenyl)-2-oxopyrrolidin-1-yl}-N-methylpropionamide (isomer B)], for which the EC50 in test [1] was determined as 40 pM. On the same count and under the same terms, to `COc1ccc(C2CNC(=O)C2NC(=O)Nc2ccc(Cl)cc2)cc1` (single isomer, unassigned; (+)) [Example 12-12, (+)-1-(4-chlorophenyl)-3-[4-(4-methoxyphenyl)-2-oxopyrrolidin-3-yl]urea] belongs 900 pM.

As for `COc1cc(F)c([C@@H]2CNC(=O)[C@H]2NC(=O)Nc2cccc(C#N)c2)c(F)c1` (relative stereo) [Example 7-12, (−)-1-(3-cyanophenyl)-3-[(3S*,4R*)-4-(2,6-difluoro-4-methoxyphenyl)-2-oxopyrrolidin-3-yl]urea], the EC50 in test [1] was 3900 pM. On the same count and under the same terms, to `CCOC(=O)C(C)(C)N1C[C@@H](c2cc3c(cc2F)OCC3)[C@H](NC(=O)Nc2ccc(F)cc2)C1=O` (single isomer, unassigned) [EXAMPLE 24-21, (−)-2-{(3S*,4R*)-4-(6-fluoro-2,3-dihydrobenzofuran-5-yl)-3-[3-(4-fluorophenyl)ureido]-2-oxopyrrolidin-1-yl}-2-methylpropanoic acid ethyl ester] belongs 450 pM.
